Assay results published in patent US5824533A, “Orpinomyces xylanase proteins and coding sequences” (University of Georgia Research Foundation, Inc., priority 1995, dated 1998).
Several values for one entry are separate records, joined by “and”; a condition that tells them apart may be missing. Identical values can stand only once. Entries after “also recorded” stand apart in the source; their conditions may differ.

Tested on: Orpinomyces sp. strain PC-2 endoxylanase XynA-1 (purified native enzyme, 29 kDa)
Assay: Effect of reagents on purified endoxylanase activity (residual activity on oat spelt xylan)
Assay type: biochemical
Protocol: Enzyme assays: All enzyme assays were carried out in duplicate and in 50 mM piperazine/HCl buffer at pH 5.5 and 40° C. unless otherwise stated.
a. Xylanase activity was assayed by mixing a 0.2 ml aliquot of diluted enzyme with 0.4 ml buffer containing 1.0% (w/v) oat spelt xylan (Sigma Chemical Co., St. Louis, Mo.), preheated to 40° C. After 15 min at 40° C., the reaction was terminated by the addition of 1.2 ml of 3,5-dinitrosalicylic acid (DNS) (Miller, 1959), followed by 0.2 ml of 2.5N NaOH to dissolve the residual water-insoluble xylan. The reaction tube was then placed in boiling water for 5 min before determining the absorbance at 550 nm (A550 nm). Xylose was used as the standard.
The effects of various metal ions and reagents on xylanase activity were determined in 50 mM piperazine-HCl, pH 5.5. The enzyme and metal ions or reagents (1 and 3 mM) were preincubated at 22° C. for 10 min; residual activities were measured at 40° C.

[1] = reagent 1 mM, preincubated 22° C. 10 min, residual activity at 40° C., 50 mM piperazine-HCl pH 5.5, control without reagent = 100%
[2] = reagent 3 mM, preincubated 22° C. 10 min, residual activity at 40° C., 50 mM piperazine-HCl pH 5.5, control without reagent = 100%
[3] = reagent 1 and 3 mM, 50 mM piperazine-HCl pH 5.5

`O=[N+]([O-])c1ccc(O)c(CBr)c1` [2-Hydroxy-5-nitroxyl-5-nitrobenzyl-bromide] was tested, and the “Relative activity (%)” value [1] was 85.5%, the “Relative activity (%)” value [2] was 63.3% and the “Effect on xylanase activity (in words)” value [3] was “inhibitory”.

In the case of `O=C(O)CN(CCN(CC(=O)O)CC(=O)O)CC(=O)O` [EDTA], the “Effect on xylanase activity (in words)” value (pH 5.5) is reported as “do not significantly effect xylanase activity” and the “Relative activity (%)” value (pH 5.5) is reported as 96.3% and 93.7%.

In the case of `O=C(O)c1cc[c]([Hg+])cc1.[OH-]` [Hydroxymercuribenzoate, p-hydroxymercuribenzoate], the “Effect on xylanase activity (in words)” value (reagent 1 mM) is reported as “total inactivation”, the “Relative activity (%)” value [1] is reported as 0% and the “Relative activity (%)” value [2] is reported as 0%.

In the case of `O=C1CCC(=O)N1Br` [N-Bromosuccinimide], the “Effect on xylanase activity (in words)” value (reagent 1 mM) is reported as “total inactivation; also recorded: completely inhibited”, the “Relative activity (%)” value [1] is reported as 0% and the “Relative activity (%)” value [2] is reported as 0%.

`OCCS` [β-Mercaptoethanol] was tested, and the “Relative activity (%)” value [1] was 96.7%, the “Relative activity (%)” value [2] was 95.4% and the “Effect on xylanase activity (in words)” value [3] was “do not significantly effect xylanase activity”.
